# According to patent publication US11919862B1, “6′-(4-bromophenyl)-2′-ethoxy-3,4′-bipyridine-3′-carbonitrile as an antioxidant” (KING FAISAL UNIVERSITY, priority 2023, dated 2024):
# Assay: DPPH (2,2-diphenyl-1-picrylhydrazyl) in vitro antioxidant / radical scavenging test
# Assay type: biochemical
# Conditions: 517 nm; for Inhibition: radical scavenging inhibition of DPPH, vitamin C as reference
# Description: A new polyfunctionalized pyridine 6′-(4-bromophenyl)-2′-ethoxy-3,4′-bipyridine-3′-carbonitrile (4) was investigated for its antioxidant activity by 2,2-diphenyl-1-picrylhydrazyl (DPPH) in vitro tests that employ vitamin C as the positive control. The product 4 magnitude estimated the antioxidant potential to vanish the DPPH radical distinctive colors at 517 nm. […] The radical scavenging inhibition was calculated using the following equation: […]
SMILES,Inhibition [%],antioxidant potential compared to vitamin C (DPPH in vitro test)
"O=C1O[C@H]([C@@H](O)CO)C(O)=C1O [vit c, vitamin C, reference compound]",74,–
"CCOc1nc(-c2ccc(Br)cc2)cc(-c2cccnc2)c1C#N [Product 4, 6′-(4-bromophenyl)-2′-ethoxy-3,4′-bipyridine-3′-carbonitrile]",48,high potential as an antioxidant
